What was measured:
Type in all cases: cell-based
[1] = test system: human cultivated endothelial cells; assay: Absorption of FITC-marked decoy oligonucleotide, fluorescence microscopy; conditions: for effect of transport inhibitors on accumulation/absorption of decoy oligonucleotides: human endothelial cells, methotrexate by comparison with folic acid; for concentration of the nucleic acids in the cell on co-incubation with nonsteroidal anti-inflammatory drug: 100 μmol/l co-incubation, 1 hour (FIG. 6)
Experimental: Human endothelial cells were isolated from umbilical veins by treatment with 1.6 U/ml dispase in Hepes-modified tyrode solution for 30 minutes at 37° C. and cultivated on gelatine-coated 6-well tissue-culture dishes (2 mg/ml gelatine in 0.1 M HCl for 30 minutes at room temperature) in 1.5 ml M199 medium (Gibco Life Technologies, Karlsruhe, Germany), containing 20% foetal calf serum, 50 U/ml penicillin, 50 μg/ml streptomycin, 10 U/ml nystatin, 5 mM HEPES and 5 mM TES, 1 μg/ml heparin and 40 μg/ml endothelial growth factor. […] Before the start of the experiment, the endothelial cells cultivated in the 24-well cell-culture plates were washed once with Ringer's solution at 37° C. (composition: 145 mmol/l Na^+, 5 mmol/l K^+, 156 mmol/l Cl^−, 2 mmol/l Ca^2+, 1 mmol/l Mg^2+, 10 mmol/l Hepes, 10 mmol/l D-glucose, pH 7.35). […] After an incubation period of up to 180 min at 37° C. and in ambient air, the cells were washed three times with 1 ml warm, non-modified Ringer's solution. The fluorescence intensities were recorded with the MicroMax CCD-camera (Princeton Instruments Inc., Trenton, N.J., USA), which was coupled to an Axiovert S100 TV microscope (Zeiss, Göttingen, Germany), with an excitation wavelength of 494 nm, an emission wavelength of 518 nm and 200× magnification. The fluorescence images (one image was taken for each portion of the experimental mixture) and the subsequent quantification was implemented using the MetaMorph V3.0 Software (Universal Imaging West Chester, Pa., USA). For the quantification, all fluorescence images for an experimental mixture were initially calibrated to an identical level of brightness and contrast. Following this, the software was used to determine an overall brightness integrated across the individual pixels for each image as a measure for the fluorescence intensity, thereby representing the intracellular concentration of the decoy oligonucleotide.

caveolin-1 = assay: Western-blot analysis of caveolin-1 protein expression after antisense oligonucleotide treatment; conditions: human cultivated endothelial cells; antisense 0.5 μmol/l with lipofectin; n=3
Experimental: (§1) For an antisense mixture, 3% lipofectin (v/v) (Gibco Life Technologies) was added to 1 ml culture medium and incubated for 60 minutes at room temperature (RT). Following this, the corresponding antisense or control oligonucleotide (Eurogentec, Köln, Germany) was added in a final concentration of 0.5 μmol/l and incubated for a further 30 minutes at room temperature. At the start of the experiments, the corresponding quantities of heparin and endothelial growth factor were added, and the conventional cell culture medium of the endothelial cell culture was replaced by the antisense lipofectin medium. After 6 hours, the antisense lipofectin medium was removed and replaced by fresh cell culture medium; the Western-blot analysis and/or the fluorescence-microscopic analysis of the decoy-oligonucleotide absorption was carried out 24 hours after the transfection. […]
(§2) The human umbilical vein endothelial cells were opened by freezing successively five times in liquid nitrogen and thawing at 37° C. […] CD40 protein was detected with a polyclonal anti-human antibody (Research Diagnostics Inc., Flanders, N.J., USA). […]

[2] = test system: reduced folic-acid-carrier; assay: Western-blot analysis of reduced folic-acid-carrier protein expression after antisense oligonucleotide treatment; conditions: human cultivated endothelial cells; antisense 0.5 μmol/l with lipofectin; n=5
Experimental: as §1, §2

[3] = FITC-marked C/EBP decoy 10 μmol/l

Molecule: O=S(=O)(O)c1cc(N=C=S)ccc1C=Cc1ccc(N=C=S)cc1S(=O)(=O)O [DIDS, 4,4′-diisothiocyano-2,2′-stilben-disulfonic acid]
- effect of transport inhibitors on accumulation/absorption of decoy oligonucleotides [1]: high sensitivity

Molecule: CC(C(=O)O)c1ccc(-c2ccccc2)c(F)c1 (stereo not drawn) [flurbiprofen]
- concentration of the nucleic acids in the cell on co-incubation with nonsteroidal anti-inflammatory drug [1, 3]: significantly increased

Molecule: 5′-A*T*G*TCCCTCCGAGT*C*T*A-3′ [antisense oligonucleotide for caveolin-1]
- protein expression of caveolin-1 (caveolin-1): 37±10 % of the control
- effect on absorption of the decoy oligonucleotide ([1]; after inhibition of caveolin-1 expression, FITC-marked C/EBP decoy 10 μmol/l, 1 hour (FIG. 2)): significant restricttion

Molecule: CC(C(=O)O)c1ccc(N2Cc3ccccc3C2=O)cc1 (stereo not drawn) [indoprofen]
- concentration of the nucleic acids in the cell on co-incubation with nonsteroidal anti-inflammatory drug [1, 3]: significantly increased

Molecule: 5′-C*A*A*A*GG*T*A*GC*A*C*A*CG*A*G-3′
- protein expression of the reduced folic-acid-carrier [2]: 33±10 % of the control
- inhibition of the decoy-oligonucleotide absorption ([1]; after antisense reduction of hFRC protein, FITC-marked C/EBP decoy 10 μmol/l, 1 hour (FIG. 4)): 45%

Molecule: CCCN(CCC)S(=O)(=O)c1ccc(C(=O)O)cc1 [probenicid]
- effect of transport inhibitors on accumulation/absorption of decoy oligonucleotides [1]: probenicid-sensitive

Molecule: CN(Cc1cnc2nc(N)nc(N)c2n1)c1ccc(C(=O)N[C@@H](CCC(=O)O)C(=O)O)cc1 [methotrexate]
- effect of transport inhibitors on accumulation/absorption of decoy oligonucleotides [1]: considerably improved inhibition

— US20060258601A1, “Formulation for inwardly transferring nucleic acids into eucaryotic cells” (priority 2002, published 2006)
